Results: US5288709A, “Erythromycin derivatives” (priority 1991, dated 1994)
≈ marks a conversion by molar mass, not a printed value.

Key:
[1] = tested on: Acinetobacter SP CMX 669; assay: In-vitro antimicrobial activity primary screen (agar dilution MIC); format: cell-based; conditions: Acinetobacter SP CMX 669, BHI agar, 20-24 h
Summary of the method: (§1)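 Growth inhibition was scored on Brain Heart Infusion agar after 20-24 h incubation at 35-37° C; the MIC is the lowest tested concentration yielding no growth, a slight haze or sparsely isolated colonies on the inoculum spot.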

[2] = tested on: Enterobacter aerogenes ATCC 13048; assay: as above; format: cell-based; conditions: Klebsiella aerogenes, ATCC13048, 24 h
Summary of the method: as §1

[3] = tested on: Enterococcus faecium ATCC 8043; assay: as above; format: cell-based; conditions: Enterococcus faecium, ATCC8043, 24 h
Summary of the method: as §1

[4] = tested on: Escherichia coli DC-2; assay: as above; format: cell-based; conditions: Escherichia coli DC-2; BHI agar, 20-24 h
Summary of the method: as §1

[5] = tested on: Escherichia coli H560; assay: as above; format: cell-based; conditions: Escherichia coli, H560, 24 h, Escherichia coli H560; BHI agar, 20-24 h
Summary of the method: as §1

[6] = tested on: Escherichia coli JUHL; assay: as above; format: cell-based; conditions: Escherichia coli, 24 h, Escherichia coli JUHL; BHI agar, 20-24 h
Summary of the method: as §1

[7] = tested on: Escherichia coli SS; assay: as above; format: cell-based; conditions: BHI agar, 20-24 h
Summary of the method: as §1

[8] = tested on: Klebsiella pneumoniae ATCC 8045; assay: as above; format: cell-based; conditions: Klebsiella pneumoniae, ATCC8045, 24 h
Summary of the method: as §1

[9] = tested on: Micrococcus luteus ATCC 4698; assay: as above; format: cell-based; conditions: BHI agar, 20-24 h
Summary of the method: as §1

[10] = tested on: Micrococcus luteus ATCC 9341; assay: as above; format: cell-based; conditions: BHI agar, 20-24 h
Summary of the method: as §1

[11] = tested on: Providencia stuartii CMX 640; assay: as above; format: cell-based; conditions: Providencia stuartii, CMX640, 24 h
Summary of the method: as §1

[12] = tested on: Pseudomonas aeruginosa A5007; assay: as above; format: cell-based; conditions: Pseudomonas aeruginosa, A5007, 24 h
Summary of the method: as §1

[13] = tested on: Pseudomonas aeruginosa K799/61; assay: as above; format: cell-based
Summary of the method: as §1

[14] = tested on: Pseudomonas aeruginosa K799/WT; assay: as above; format: cell-based; conditions: Pseudomonas aeruginosa, K799/WT, 24 h
Summary of the method: as §1

[15] = tested on: Pseudomonas cepacia 2961; assay: as above; format: cell-based; conditions: BHI agar, 20-24 h
Summary of the method: as §1

[16] = tested on: Staphylococcus aureus ATCC 6538P; assay: as above; format: cell-based; conditions: BHI agar, 20-24 h
Summary of the method: as §1

[17] = tested on: Staphylococcus epidermidis 3519; assay: as above; format: cell-based; conditions: BHI agar, 20-24 h
Summary of the method: as §1

[18] = tested on: Streptococcus bovis A5169; assay: as above; format: cell-based; conditions: Streptococcus equinus, A5169, 24 h, BHI agar, 20-24 h
Summary of the method: as §1

[19] = tested on: Streptococcus pyrogenes 2548 INDUC; assay: as above; format: cell-based; conditions: BHI agar, 20-24 h
Summary of the method: as §1

[20] = tested on: Streptococcus pyrogenes EES61; assay: as above; format: cell-based; conditions: Streptococcus, EES61, 24 h, BHI agar, 20-24 h
Summary of the method: as §1

[21] = Pharmacokinetic evaluation in dogs after a 10 mg/kg dose; conditions: dog, plasma, po, oral 10 mg/kg, microbiological assay

CC[C@H]1OC(=O)[C@H](C)[C@@H](O[C@H]2C[C@@](C)(OC)[C@@H](O)[C@H](C)O2)[C@H](C)[C@@H](O[C@@H]2O[C@H](C)C[C@H](N(C)C)[C@H]2O)[C@](C)(O)C[C@@H](C)C(=O)[C@H](C)[C@@H](O)[C@]1(C)O [Std, Erythromycin A, reference compound]
MIC [1]: 3.1 microgram/mL | MIC ([1]; Acinetobacter, SPCMX669, 24 h): 6.2 µg/mL (≈ 8.45 µM) | MIC [2]: 100 µg/mL (≈ 136 µM) | MIC [3]: 0.05 µg/mL (≈ 0.0681 µM) | MIC [4]: 25 microgram/mL | MIC [5]: 25 µg/mL (≈ 34.1 µM) | MIC [6]: 25 µg/mL (≈ 34.1 µM) | MIC [7]: 0.39 microgram/mL | MIC ([7]; Escherichia coli, 24 h): 0.2 µg/mL (≈ 0.273 µM) | MIC [8]: 100 µg/mL (≈ 136 µM) | MIC [9]: 0.2 microgram/mL | MIC ([9]; Micrococcus luteus, ATCC4698, 24 h): 0.1 µg/mL (≈ 0.136 µM) | MIC [10]: 0.02 microgram/mL | MIC [11]: > 100 µg/mL | MIC [12]: > 100 µg/mL | MIC ([13]; Pseudomonas aeruginosa K799/61, BHI agar, 20-24 h): 1.56 microgram/mL | MIC ([13]; Pseudomonas aeruginosa, K799/61, 24 h): 0.78 µg/mL (≈ 1.06 µM) | MIC [14]: 100 µg/mL (≈ 136 µM) | MIC [15]: 100 microgram/mL | MIC ([15]; Burkholderia cepacia, 2961, 24 h): > 100 µg/mL | MIC [16]: 0.1 microgram/mL | MIC ([16]; Staphylococcus aureus, ATCC6538P, 24 h): 0.2 µg/mL (≈ 0.273 µM) | MIC [17]: 0.1 microgram/mL | MIC ([17]; Staphylococcus epidermidis, 3519, 24 h): 0.2 µg/mL (≈ 0.273 µM) | MIC [18]: 0.02 µg/mL (≈ 0.0273 µM) | MIC [19]: 1.56 microgram/mL | MIC ([19]; Streptococcus, 2548INDUC, 24 h): 3.1 µg/mL (≈ 4.22 µM) | MIC [20]: 0.02 µg/mL (≈ 0.0273 µM) | bioavailability ([21]; % ABS (percent absorbance), from AUC (absolute bioavailability)): 72% | Cmax ([21]; Cmax (maximum concentration in blood)): 2500 ng/mL | Tmax ([21]; Tmax (time to achieve maximum concentration in blood)): 18 min
